{"source": "ChEMBL document CHEMBL2073984", "about": "“Nonlinear oral pharmacokinetics of the alpha-antagonist 4-amino-5-(4-fluorophenyl)-6,7-dimethoxy-2-[4-(morpholinocarbonyl)-perhydro-1,4-diazepin-1-yl]quinoline in humans: use of preclinical data to rationalize clinical observations” (Drug Metab Dispos, 2004)", "biological_target": "ATP-dependent translocase ABCB1 (Homo sapiens, UniProt P08183)", "sequence (P08183 whole entry)": "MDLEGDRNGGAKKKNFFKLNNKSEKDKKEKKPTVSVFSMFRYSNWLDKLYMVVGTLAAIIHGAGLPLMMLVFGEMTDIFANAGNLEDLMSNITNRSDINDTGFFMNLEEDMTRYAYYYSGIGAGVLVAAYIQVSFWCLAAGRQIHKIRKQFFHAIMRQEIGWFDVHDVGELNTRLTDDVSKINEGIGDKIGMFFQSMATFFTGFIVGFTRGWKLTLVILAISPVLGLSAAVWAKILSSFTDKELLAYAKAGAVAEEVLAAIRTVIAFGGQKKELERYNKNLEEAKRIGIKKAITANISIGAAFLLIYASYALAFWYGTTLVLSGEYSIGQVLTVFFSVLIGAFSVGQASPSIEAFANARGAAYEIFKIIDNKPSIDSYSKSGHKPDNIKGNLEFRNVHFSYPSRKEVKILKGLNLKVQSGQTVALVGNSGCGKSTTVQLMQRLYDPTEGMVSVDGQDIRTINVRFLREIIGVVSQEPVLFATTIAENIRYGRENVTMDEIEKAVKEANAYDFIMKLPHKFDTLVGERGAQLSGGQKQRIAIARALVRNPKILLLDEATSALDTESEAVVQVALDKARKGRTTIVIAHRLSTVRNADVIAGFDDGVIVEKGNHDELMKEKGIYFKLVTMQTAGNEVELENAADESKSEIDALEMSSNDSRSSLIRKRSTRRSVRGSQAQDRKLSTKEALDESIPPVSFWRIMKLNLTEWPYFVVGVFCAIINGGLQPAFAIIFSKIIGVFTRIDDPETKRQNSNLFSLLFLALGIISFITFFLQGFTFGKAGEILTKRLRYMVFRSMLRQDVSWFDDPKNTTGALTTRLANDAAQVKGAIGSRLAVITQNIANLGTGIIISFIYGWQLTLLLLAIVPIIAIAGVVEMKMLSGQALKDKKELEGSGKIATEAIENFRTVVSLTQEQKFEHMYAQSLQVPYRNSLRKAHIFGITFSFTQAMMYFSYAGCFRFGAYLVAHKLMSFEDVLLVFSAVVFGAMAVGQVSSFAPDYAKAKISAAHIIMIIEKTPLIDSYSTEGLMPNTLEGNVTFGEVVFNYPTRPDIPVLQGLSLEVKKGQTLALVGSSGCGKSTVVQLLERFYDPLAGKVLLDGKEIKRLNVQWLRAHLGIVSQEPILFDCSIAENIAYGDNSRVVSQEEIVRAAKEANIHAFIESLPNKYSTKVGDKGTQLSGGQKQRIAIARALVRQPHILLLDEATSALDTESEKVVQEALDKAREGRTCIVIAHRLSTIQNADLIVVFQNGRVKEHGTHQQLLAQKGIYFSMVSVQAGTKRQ", "test": "TP_TRANSPORTER: transepithelial transport in Caco2 cells", "format": "functional, cell-based", "conditions": "caco-2", "data": [{"smiles": "COc1cc2nc(N3CCCN(C(=O)N4CCOCC4)CC3)cc(N)c2c(-c2ccc(F)cc2)c1OC", "values": [{"measurement": "Activity", "value": "substrate [+]"}]}]}
